According to PubChem BioAssay (NCI):
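How tested: cells in 96-well plates exposed to compound for 48 hours at five concentrations. TGI is the concentration that stops growth completely.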

What was measured:
Assay in all cases: DTP human tumour cell line panel, 48 h
HOP-18 NSCLC = tested on: HOP-18 NSCLC
NCI-H460 lung = tested on: NCI-H460 lung
NCI-H226 lung = tested on: NCI-H226 lung
SF-295 CNS = tested on: SF-295 CNS
SR leukemia = tested on: SR leukemia
TK-10 renal = tested on: TK-10 renal
SNB-78 CNS = tested on: SNB-78 CNS
ACHN renal = tested on: ACHN renal
SK-MEL-28 melanoma = tested on: SK-MEL-28 melanoma
HCT-116 colon = tested on: HCT-116 colon
UACC-257 melanoma = tested on: UACC-257 melanoma
HT29 colon = tested on: HT29 colon
LOX IMVI melanoma = tested on: LOX IMVI melanoma
SNB-75 CNS = tested on: SNB-75 CNS
KM12 colon = tested on: KM12 colon
OVCAR-5 ovarian = tested on: OVCAR-5 ovarian
XF 498 CNS = tested on: XF 498 CNS
OVCAR-4 ovarian = tested on: OVCAR-4 ovarian
RXF 393 renal = tested on: RXF 393 renal
A549 NSCLC = tested on: A549 NSCLC
DLD-1 colon = tested on: DLD-1 colon
SNB-19 CNS = tested on: SNB-19 CNS
SF-268 CNS = tested on: SF-268 CNS
MALME-3M melanoma = tested on: MALME-3M melanoma
SK-MEL-5 melanoma = tested on: SK-MEL-5 melanoma
SK-OV-3 ovarian = tested on: SK-OV-3 ovarian
HOP-92 NSCLC = tested on: HOP-92 NSCLC
M14 melanoma = tested on: M14 melanoma
SN12C renal = tested on: SN12C renal
HCT-15 colon = tested on: HCT-15 colon
SW-620 colon = tested on: SW-620 colon
HL-60(TB) leukemia = tested on: HL-60(TB) leukemia
NCI-H522 lung = tested on: NCI-H522 lung
A498 renal = tested on: A498 renal
HCC-2998 colon = tested on: HCC-2998 colon
NCI-H23 lung = tested on: NCI-H23 lung
RPMI-8226 leukemia = tested on: RPMI-8226 leukemia
CAKI-1 renal = tested on: CAKI-1 renal
SK-MEL-2 melanoma = tested on: SK-MEL-2 melanoma
HOP-62 NSCLC = tested on: HOP-62 NSCLC
LXFL 529 NSCLC = tested on: LXFL 529 NSCLC
IGROV1 ovarian = tested on: IGROV1 ovarian
U251 CNS = tested on: U251 CNS
MOLT-4 leukemia = tested on: MOLT-4 leukemia
K-562 leukemia = tested on: K-562 leukemia
UO-31 renal = tested on: UO-31 renal
RXF-631 renal = tested on: RXF-631 renal
EKVX NSCLC = tested on: EKVX NSCLC
UACC-62 melanoma = tested on: UACC-62 melanoma
OVCAR-8 ovarian = tested on: OVCAR-8 ovarian
786-0 renal = tested on: 786-0 renal
OVCAR-3 ovarian = tested on: OVCAR-3 ovarian
M19-MEL melanoma = tested on: M19-MEL melanoma
DMS 114 small cell lung = tested on: DMS 114 small cell lung
SF-539 CNS = tested on: SF-539 CNS
COLO 205 colon = tested on: COLO 205 colon
DMS 273 small cell lung = tested on: DMS 273 small cell lung
CCRF-CEM leukemia = tested on: CCRF-CEM leukemia

Structure (SMILES): CN1NC(c2ccccc2)=C(C#N)C(=O)CC1c1ccc(Br)cc1 (centres undefined)
- TGI (HOP-18 NSCLC): > 100 µM
- TGI (NCI-H460 lung): > 100 µM
- TGI (NCI-H226 lung): 4.24 µM
- TGI (SF-295 CNS): 91.2 µM
- TGI (SR leukemia): > 100 µM
- TGI (TK-10 renal): > 100 µM
- TGI (SNB-78 CNS): > 100 µM
- TGI (ACHN renal): > 100 µM
- TGI (SK-MEL-28 melanoma): > 100 µM
- TGI (HCT-116 colon): > 100 µM
- TGI (UACC-257 melanoma): > 100 µM
- TGI (HT29 colon): 75.6 µM
- TGI (LOX IMVI melanoma): > 100 µM
- TGI (SNB-75 CNS): 46.9 µM
- TGI (KM12 colon): > 100 µM
- TGI (OVCAR-5 ovarian): 73.7 µM
- TGI (XF 498 CNS): 78.2 µM
- TGI (OVCAR-4 ovarian): > 100 µM
- TGI (RXF 393 renal): > 100 µM
- TGI (A549 NSCLC): > 100 µM
- TGI (DLD-1 colon): > 100 µM
- TGI (SNB-19 CNS): > 100 µM
- TGI (SF-268 CNS): > 100 µM
- TGI (MALME-3M melanoma): > 100 µM
- TGI (SK-MEL-5 melanoma): 57.7 µM
- TGI (SK-OV-3 ovarian): > 100 µM
- TGI (HOP-92 NSCLC): > 100 µM
- TGI (M14 melanoma): 45.8 µM
- TGI (SN12C renal): > 100 µM
- TGI (HCT-15 colon): > 100 µM
- TGI (SW-620 colon): > 100 µM
- TGI (HL-60(TB) leukemia): 83 µM
- TGI (NCI-H522 lung): 53.7 µM
- TGI (A498 renal): > 100 µM
- TGI (HCC-2998 colon): > 100 µM
- TGI (NCI-H23 lung): > 100 µM
- TGI (RPMI-8226 leukemia): > 100 µM
- TGI (CAKI-1 renal): > 100 µM
- TGI (SK-MEL-2 melanoma): 70 µM
- TGI (HOP-62 NSCLC): 61 µM
- TGI (LXFL 529 NSCLC): > 100 µM

Structure (SMILES): COc1cc(C2c3cc4c(cc3[C@@H](N(C)c3ccc(N(C)C)cc3)C3COC(=O)C23)OCO4)cc(OC)c1O (some centres undefined)
- TGI (HOP-18 NSCLC): 26.2 µM
- TGI (NCI-H460 lung): 24.2 µM
- TGI (IGROV1 ovarian): 31.5 µM
- TGI (NCI-H226 lung): 0.625 µM
- TGI (SF-295 CNS): 0.325 µM
- TGI (SR leukemia): 44.2 µM
- TGI (TK-10 renal): 33.1 µM
- TGI (U251 CNS): 1.45 µM
- TGI (MOLT-4 leukemia): 25.8 µM
- TGI (ACHN renal): 18.8 µM
- TGI (SK-MEL-28 melanoma): 27.3 µM
- TGI (K-562 leukemia): 30.6 µM
- TGI (HCT-116 colon): 14.8 µM
- TGI (UACC-257 melanoma): 18 µM
- TGI (HT29 colon): 2.62 µM
- TGI (LOX IMVI melanoma): 16 µM
- TGI (SNB-75 CNS): 42.3 µM
- TGI (KM12 colon): 21.5 µM
- TGI (OVCAR-5 ovarian): 31.3 µM
- TGI (OVCAR-4 ovarian): 29.4 µM
- TGI (UO-31 renal): 19.4 µM
- TGI (RXF-631 renal): 40.7 µM
- TGI (DLD-1 colon): 37.5 µM
- TGI (EKVX NSCLC): 44.2 µM
- TGI (SNB-19 CNS): 42.6 µM
- TGI (SF-268 CNS): 6.85 µM
- TGI (UACC-62 melanoma): 23.1 µM
- TGI (SK-MEL-5 melanoma): 13.7 µM
- TGI (SK-OV-3 ovarian): 43 µM
- TGI (OVCAR-8 ovarian): > 59.8 µM
- TGI (HOP-92 NSCLC): 36.8 µM
- TGI (M14 melanoma): 14.5 µM
- TGI (SN12C renal): 18.1 µM
- TGI (786-0 renal): 26.4 µM
- TGI (HCT-15 colon): 25.7 µM
- TGI (SW-620 colon): 21.8 µM
- TGI (HL-60(TB) leukemia): 7.84 µM
- TGI (OVCAR-3 ovarian): 0.516 µM
- TGI (M19-MEL melanoma): 12.1 µM
- TGI (DMS 114 small cell lung): 2.24 µM
- TGI (NCI-H522 lung): 0.553 µM
- TGI (SF-539 CNS): 0.638 µM
- TGI (A498 renal): > 100 µM
- TGI (HCC-2998 colon): 20.8 µM
- TGI (COLO 205 colon): 4.23 µM
- TGI (DMS 273 small cell lung): 19.5 µM
- TGI (CCRF-CEM leukemia): 35.5 µM
- TGI (NCI-H23 lung): 4.92 µM
- TGI (RPMI-8226 leukemia): > 100 µM
- TGI (CAKI-1 renal): 25 µM
- TGI (SK-MEL-2 melanoma): 16.9 µM
- TGI (HOP-62 NSCLC): > 100 µM
- TGI (LXFL 529 NSCLC): 12.3 µM
